{"source": "the OligoGym collection", "note": "Oligonucleotides are written 5' to 3', each unit as a sugar letter and its base; * is a phosphorothioate linkage, no mark a phosphodiester; rarer units and linkages stand in square brackets, end groups in braces. Plain capitals give the bases only. d = 2'-deoxy (DNA); r = 2'-OH (RNA); note: test concentration or dose not given here"}
{"target": "UBE2S", "assay": "reporter assay of Huesken 2005", "conditions": "siRNA", "units": {"normalised inhibition (eCFP-eYFP dual reporter)": "%"}}
{"substance": "sense rArGrUrArUrGrCrArGrCrUrCrGrGrGrCrCrCrGdTdT / antisense rCrGrGrGrCrCrCrGrArGrCrUrGrCrArUrArCrUdCdC", "normalised inhibition (eCFP-eYFP dual reporter)": 49.8}
{"substance": "sense rArGrCrUrUrCrCrUrCrCrArCrCrGrArCrCrCrUdTdT / antisense rArGrGrGrUrCrGrGrUrGrGrArGrGrArArGrCrUdTdC", "normalised inhibition (eCFP-eYFP dual reporter)": 49.4}
{"substance": "sense rGrUrArUrGrCrArGrCrUrCrGrGrGrCrCrCrGrUdTdT / antisense rArCrGrGrGrCrCrCrGrArGrCrUrGrCrArUrArCdTdC", "normalised inhibition (eCFP-eYFP dual reporter)": 47}
{"substance": "sense rGrArGrGrGrCrCrCrUrGrArGrGrGrGrArCrCrCdTdT / antisense rGrGrGrUrCrCrCrCrUrCrArGrGrGrCrCrCrUrCdGdA", "normalised inhibition (eCFP-eYFP dual reporter)": 44.6}
{"substance": "sense rGrCrCrUrGrCrUrCrUrUrGrGrArGrArArCrUrAdTdT / antisense rUrArGrUrUrCrUrCrCrArArGrArGrCrArGrGrCdGdG", "normalised inhibition (eCFP-eYFP dual reporter)": 76}
{"substance": "sense rCrGrGrUrCrGrGrGrCrCrCrUrGrGrCrCrArGrUdTdT / antisense rArCrUrGrGrCrCrArGrGrGrCrCrCrGrArCrCrGdGdC", "normalised inhibition (eCFP-eYFP dual reporter)": 41.5}
{"substance": "sense rArUrGrCrUrGrGrCrGrArGrCrGrCrGrArUrArAdTdT / antisense rUrUrArUrCrGrCrGrCrUrCrGrCrCrArGrCrArUdGdC", "normalised inhibition (eCFP-eYFP dual reporter)": 71.3}
{"substance": "sense rUrCrCrArCrCrCrUrArArCrCrCrCrGrArGrUrCdTdT / antisense rGrArCrUrCrGrGrGrGrUrUrArGrGrGrUrGrGrAdTdC", "normalised inhibition (eCFP-eYFP dual reporter)": 39.4}
{"substance": "sense rGrUrCrArCrCrArUrCrGrArGrGrGrCrCrCrUrGdTdT / antisense rCrArGrGrGrCrCrCrUrCrGrArUrGrGrUrGrArCdCdT", "normalised inhibition (eCFP-eYFP dual reporter)": 45.1}
{"substance": "sense rCrGrArGrUrCrUrGrCrArCrUrCrArArCrGrArGdTdT / antisense rCrUrCrGrUrUrGrArGrUrGrCrArGrArCrUrCrGdGdG", "normalised inhibition (eCFP-eYFP dual reporter)": 70.6}
{"substance": "sense rUrGrArArArCrUrCrCrUrGrCrUrGrGrGrGrArAdTdT / antisense rUrUrCrCrCrCrArGrCrArGrGrArGrUrUrUrCrAdTdG", "normalised inhibition (eCFP-eYFP dual reporter)": 54}
{"substance": "sense rGrCrCrUrCrCrCrCrArCrCrCrArArGrGrGrCrUdTdT / antisense rArGrCrCrCrUrUrGrGrGrUrGrGrGrGrArGrGrCdAdG", "normalised inhibition (eCFP-eYFP dual reporter)": 46.3}
{"substance": "sense rArArCrUrArCrGrArGrGrArGrUrArUrGrCrArGdTdT / antisense rCrUrGrCrArUrArCrUrCrCrUrCrGrUrArGrUrUdCdT", "normalised inhibition (eCFP-eYFP dual reporter)": 40}
{"substance": "sense rGrCrCrCrArGrCrGrGrCrArGrGrGrCrCrGrArAdTdT / antisense rUrUrCrGrGrCrCrCrUrGrCrCrGrCrUrGrGrGrCdCdC", "normalised inhibition (eCFP-eYFP dual reporter)": 42}
{"substance": "sense rUrArArCrCrCrCrGrArGrUrCrUrGrCrArCrUrCdTdT / antisense rGrArGrUrGrCrArGrArCrUrCrGrGrGrGrUrUrAdGdG", "normalised inhibition (eCFP-eYFP dual reporter)": 39.5}
{"substance": "sense rGrGrGrGrCrUrGrArGrGrGrUrCrCrCrArUrGrGdTdT / antisense rCrCrArUrGrGrGrArCrCrCrUrCrArGrCrCrCrCdTdC", "normalised inhibition (eCFP-eYFP dual reporter)": 42.8}
{"substance": "sense rGrCrArCrUrGrArArGrCrUrUrCrCrUrCrCrArCdTdT / antisense rGrUrGrGrArGrGrArArGrCrUrUrCrArGrUrGrCdCdA", "normalised inhibition (eCFP-eYFP dual reporter)": 58.5}
{"target": "UBE2W", "assay": "reporter assay of Huesken 2005", "conditions": "siRNA", "units": {"normalised inhibition (eCFP-eYFP dual reporter)": "%"}}
{"substance": "sense rUrCrCrUrUrUrUrGrArCrUrCrUrCrCrUrCrArGdTdT / antisense rCrUrGrArGrGrArGrArGrUrCrArArArArGrGrAdTdA", "normalised inhibition (eCFP-eYFP dual reporter)": 78.4}
{"substance": "sense rArUrCrArGrUrUrUrGrUrCrUrUrArGrCrArUrUdTdT / antisense rArArUrGrCrUrArArGrArCrArArArCrUrGrArUdTdG", "normalised inhibition (eCFP-eYFP dual reporter)": 107}
{"substance": "sense rUrGrUrUrUrArUrCrCrArUrUrCrUrArArCrArGdTdT / antisense rCrUrGrUrUrArGrArArUrGrGrArUrArArArCrAdGdA", "normalised inhibition (eCFP-eYFP dual reporter)": 66.2}
{"substance": "sense rCrUrUrUrCrCrArGrCrUrGrCrArArGrGrArArAdTdT / antisense rUrUrUrCrCrUrUrGrCrArGrCrUrGrGrArArArGdCdA", "normalised inhibition (eCFP-eYFP dual reporter)": 103}
{"substance": "sense rUrGrArCrCrUrUrArArArUrGrArGrArArGrArGdTdT / antisense rCrUrCrUrUrCrUrCrArUrUrUrArArGrGrUrCrAdTdT", "normalised inhibition (eCFP-eYFP dual reporter)": 75}
{"substance": "sense rArArArArUrUrCrArArUrUrArCrArCrArGrUrGdTdT / antisense rCrArCrUrGrUrGrUrArArUrUrGrArArUrUrUrUdGdA", "normalised inhibition (eCFP-eYFP dual reporter)": 76.8}
{"substance": "sense rCrArCrArGrUrGrGrArUrUrGrUrArGrArCrArUdTdT / antisense rArUrGrUrCrUrArCrArArUrCrCrArCrUrGrUrGdTdA", "normalised inhibition (eCFP-eYFP dual reporter)": 115}
{"substance": "sense rGrUrGrArArArArUrArUrUrCrCrUrGrUrUrCrAdTdT / antisense rUrGrArArCrArGrGrArArUrArUrUrUrUrCrArCdCdA", "normalised inhibition (eCFP-eYFP dual reporter)": 82}
{"substance": "sense rUrArArCrArArGrArArUrCrCrArArArGrArArAdTdT / antisense rUrUrUrCrUrUrUrGrGrArUrUrCrUrUrGrUrUrAdCdA", "normalised inhibition (eCFP-eYFP dual reporter)": 115}
{"substance": "sense rArGrArArGrArCrUrGrGrUrCrCrCrCrArGrCrGdTdT / antisense rCrGrCrUrGrGrGrGrArCrCrArGrUrCrUrUrCrUdGdT", "normalised inhibition (eCFP-eYFP dual reporter)": 88.4}
{"substance": "sense rArGrArGrUrGrUrUrCrArArArArUrUrCrArArUdTdT / antisense rArUrUrGrArArUrUrUrUrGrArArCrArCrUrCrUdTdC", "normalised inhibition (eCFP-eYFP dual reporter)": 109}
{"substance": "sense rGrArCrArUrGrGrArArGrGrUrGrCrArCrCrArGdTdT / antisense rCrUrGrGrUrGrCrArCrCrUrUrCrCrArUrGrUrCdTdA", "normalised inhibition (eCFP-eYFP dual reporter)": 94.9}
{"substance": "sense rArCrArGrUrGrGrArUrUrGrUrArGrArCrArUrGdTdT / antisense rCrArUrGrUrCrUrArCrArArUrCrCrArCrUrGrUdGdT", "normalised inhibition (eCFP-eYFP dual reporter)": 110}
{"substance": "sense rArUrGrGrArArGrGrUrGrCrArCrCrArGrGrUrAdTdT / antisense rUrArCrCrUrGrGrUrGrCrArCrCrUrUrCrCrArUdGdT", "normalised inhibition (eCFP-eYFP dual reporter)": 86.1}
{"substance": "sense rCrCrUrCrCrUrGrGrArArUrGrArCrCrUrUrArAdTdT / antisense rUrUrArArGrGrUrCrArUrUrCrCrArGrGrArGrGdTdG", "normalised inhibition (eCFP-eYFP dual reporter)": 99.3}
{"substance": "sense rCrUrCrCrUrGrGrArArUrGrArCrCrUrUrArArAdTdT / antisense rUrUrUrArArGrGrUrCrArUrUrCrCrArGrGrArGdGdT", "normalised inhibition (eCFP-eYFP dual reporter)": 100}
{"substance": "sense rArUrCrUrGrUrUrUrArUrCrCrArUrUrCrUrArAdTdT / antisense rUrUrArGrArArUrGrGrArUrArArArCrArGrArUdAdT", "normalised inhibition (eCFP-eYFP dual reporter)": 96.6}
{"substance": "sense rUrCrUrArArCrArGrArArGrArCrUrGrGrUrCrCdTdT / antisense rGrGrArCrCrArGrUrCrUrUrCrUrGrUrUrArGrAdAdT", "normalised inhibition (eCFP-eYFP dual reporter)": 73.3}
{"substance": "sense rGrArCrCrArCrCrGrGrArUrArArUrUrCrUrUrUdTdT / antisense rArArArGrArArUrUrArUrCrCrGrGrUrGrGrUrCdGdT", "normalised inhibition (eCFP-eYFP dual reporter)": 96.4}
{"substance": "sense rUrArUrCrUrGrUrUrUrArUrCrCrArUrUrCrUrAdTdT / antisense rUrArGrArArUrGrGrArUrArArArCrArGrArUrAdTdG", "normalised inhibition (eCFP-eYFP dual reporter)": 85.9}
{"substance": "sense rUrArGrArCrArUrGrGrArArGrGrUrGrCrArCrCdTdT / antisense rGrGrUrGrCrArCrCrUrUrCrCrArUrGrUrCrUrAdCdA", "normalised inhibition (eCFP-eYFP dual reporter)": 38.9}
{"substance": "sense rGrUrGrCrGrArArCrArUrGrUrArArCrArArGrAdTdT / antisense rUrCrUrUrGrUrUrArCrArUrGrUrUrCrGrCrArCdAdT", "normalised inhibition (eCFP-eYFP dual reporter)": 125}
{"substance": "sense rArArGrArGrArCrGrArCrCrArCrCrGrGrArUrAdTdT / antisense rUrArUrCrCrGrGrUrGrGrUrCrGrUrCrUrCrUrUdTdT", "normalised inhibition (eCFP-eYFP dual reporter)": 82.7}
{"substance": "sense rArUrUrArGrCrArUrGrCrUrUrUrCrCrArGrCrUdTdT / antisense rArGrCrUrGrGrArArArGrCrArUrGrCrUrArArUdAdA", "normalised inhibition (eCFP-eYFP dual reporter)": 67.5}
{"substance": "sense rArCrUrGrGrUrCrCrCrCrArGrCrGrCrUrCrUrCdTdT / antisense rGrArGrArGrCrGrCrUrGrGrGrGrArCrCrArGrUdCdT", "normalised inhibition (eCFP-eYFP dual reporter)": 93.1}
{"substance": "sense rUrCrGrArUrArUrCrCrUrUrUrUrGrArCrUrCrUdTdT / antisense rArGrArGrUrCrArArArArGrGrArUrArUrCrGrAdCdT", "normalised inhibition (eCFP-eYFP dual reporter)": 74.7}
{"substance": "sense rCrUrGrUrUrCrArUrCrCrUrCrArUrGrUrUrUrAdTdT / antisense rUrArArArCrArUrGrArGrGrArUrGrArArCrArGdGdA", "normalised inhibition (eCFP-eYFP dual reporter)": 113}
{"substance": "sense rCrArArGrGrArArArArGrArGrArCrGrArCrCrAdTdT / antisense rUrGrGrUrCrGrUrCrUrCrUrUrUrUrCrCrUrUrGdCdA", "normalised inhibition (eCFP-eYFP dual reporter)": 110}
{"substance": "sense rUrUrArArArUrUrUrArGrUrArGrUrCrGrArUrAdTdT / antisense rUrArUrCrGrArCrUrArCrUrArArArUrUrUrArAdAdT", "normalised inhibition (eCFP-eYFP dual reporter)": 79.9}
{"substance": "sense rUrGrCrArCrCrArGrGrUrArCrCrUrUrArUrArUdTdT / antisense rArUrArUrArArGrGrUrArCrCrUrGrGrUrGrCrAdCdC", "normalised inhibition (eCFP-eYFP dual reporter)": 78}
{"substance": "sense rUrUrUrUrGrArCrUrCrUrCrCrUrCrArGrGrUrCdTdT / antisense rGrArCrCrUrGrArGrGrArGrArGrUrCrArArArAdGdG", "normalised inhibition (eCFP-eYFP dual reporter)": 95}
{"substance": "sense rUrArArCrArGrArArGrArCrUrGrGrUrCrCrCrCdTdT / antisense rGrGrGrGrArCrCrArGrUrCrUrUrCrUrGrUrUrAdGdA", "normalised inhibition (eCFP-eYFP dual reporter)": 64.7}
{"substance": "sense rUrGrCrGrArArCrArUrGrUrArArCrArArGrArAdTdT / antisense rUrUrCrUrUrGrUrUrArCrArUrGrUrUrCrGrCrAdCdA", "normalised inhibition (eCFP-eYFP dual reporter)": 104}
{"substance": "sense rArGrGrUrGrCrArCrCrArGrGrUrArCrCrUrUrAdTdT / antisense rUrArArGrGrUrArCrCrUrGrGrUrGrCrArCrCrUdTdC", "normalised inhibition (eCFP-eYFP dual reporter)": 93.2}
{"substance": "sense rGrCrArArGrGrArArArArGrArGrArCrGrArCrCdTdT / antisense rGrGrUrCrGrUrCrUrCrUrUrUrUrCrCrUrUrGrCdAdG", "normalised inhibition (eCFP-eYFP dual reporter)": 112}
